Values quoted from earlier work in patent US7498354B2, “Pyrrolo[2,3-D]imidazoles for the treatment of hyperproliferative disorders” (OSI Pharmaceuticals, Inc., priority 2006, dated 2009).
Structures can show the parent of a compound that is named as a salt.

Assays:
[1] = system: MO7e human leukemia cells; settings: GM-CSF stimulation
[2] = system: MO7e human leukemia cells; settings: Kit ligand stimulation

In the case of `Cc1ccc(NC(=O)c2ccc(CN3CCN(C)CC3)cc2)cc1Nc1nccc(-c2cccnc2)n1` [Gleevec, imatinib mesylate], the “GM-CSF stimulated growth of MO7e human leukemia cells” value [1] is listed as “not affected”, the “Kit ligand-stimulated growth of MO7e human leukemia cells” value [2] is listed as “inhibited” and the “apoptosis in Kit ligand-stimulated MO7e cells” value [2] is listed as “induces apoptosis”.
